The values below are quoted from earlier work in patent US20060198926A1, “ALPHA-PYRONE COMPOSITION FOR CONTROLLING CRAVING AND AS A SUBSTITUTE FOR ALCOHOL” (priority 1999, published 2006).

The data set relates to dopaminergic neurons of the nucleus accumbens. The settings on record: administered in vivo by microdialysis into the nucleus accumbens (Baum 1998).

Consider `COc1ccc(/C=C/c2cc(OC)cc(=O)o2)cc1` [yangonin], for which the “levels of dopamine in the nucleus accumbens” value was “decreases dopamine to undetectable levels”.
On to `COc1cc(/C=C/c2ccccc2)oc(=O)c1` [desmethoxyyangonin], for which the “levels of dopamine in the nucleus accumbens” value is on record as “increase in dopamine”.
